Patent US6638546B2 (Council of Scientific & Industrial Research, priority 2001, dated 2003)
“Also recorded” adds a separate entry of the source.

Tests used:
[1] = rat, in vivo; cited from earlier work
M3 receptors [2] = target: T1, M3 receptors (Cavia porcellus, UniProt H0W1Z3); test: Dose response curve of acetylcholine on isolated guinea pig ileum; conditions: 98, 196 and 392×10^−6 moles per ml of bath
T1 construct: from tissue; host or cells: guinea pig longitudinal ileal muscle; guinea pig bladder detrusor strips
T1 sequence (H0W1Z3 1-590): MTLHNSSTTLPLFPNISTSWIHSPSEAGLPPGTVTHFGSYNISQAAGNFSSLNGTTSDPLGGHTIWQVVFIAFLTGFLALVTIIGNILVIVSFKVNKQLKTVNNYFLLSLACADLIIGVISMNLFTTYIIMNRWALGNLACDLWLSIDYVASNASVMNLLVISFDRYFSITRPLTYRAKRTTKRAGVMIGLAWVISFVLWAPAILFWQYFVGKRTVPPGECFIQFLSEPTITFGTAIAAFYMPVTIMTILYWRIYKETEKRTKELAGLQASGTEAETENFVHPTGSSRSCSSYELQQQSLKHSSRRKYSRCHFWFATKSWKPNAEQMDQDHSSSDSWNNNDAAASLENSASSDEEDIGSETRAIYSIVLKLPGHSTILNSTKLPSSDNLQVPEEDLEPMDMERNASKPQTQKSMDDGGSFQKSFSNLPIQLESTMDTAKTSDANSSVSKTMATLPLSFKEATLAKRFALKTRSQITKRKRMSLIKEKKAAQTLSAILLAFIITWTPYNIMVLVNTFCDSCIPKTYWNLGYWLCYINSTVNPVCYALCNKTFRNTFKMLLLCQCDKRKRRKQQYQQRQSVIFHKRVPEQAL
Source text: (§1) The three doses prepared and applied were 98×10^−6 moles per milliliter of bath concentration; 196×10^−6 moles per milliliter of bath concentration and 392×10^−6 moles per milliliter of bath concentration. For comparative purposes, the three doses of atropine used were 35×10^−6 moles per milliliter of bath concentration; 86×10^−6 moles per milliliter of bath concentration and 173×10^−[…] moles per milliliter of bath concentration.
The longitudinal ileal muscle was suspended in an organ bath in aerated Tyrode solution. […]. Doses of the compound were as given in Example 5.

Salmonella = Salmonella and mammalian microsome assays; cited from earlier work
M1 receptors = target: T2, M1 receptors (Rattus norvegicus, UniProt P08482); test: Basal gastric acidity by pyloric ligation in rats; format: in vivo; conditions: for % inhibition of gastric acidity: 15 min before pyloric ligation
T2 construct: from tissue; host or cells: living albino rats (stomach)
T2 sequence (P08482 1-460): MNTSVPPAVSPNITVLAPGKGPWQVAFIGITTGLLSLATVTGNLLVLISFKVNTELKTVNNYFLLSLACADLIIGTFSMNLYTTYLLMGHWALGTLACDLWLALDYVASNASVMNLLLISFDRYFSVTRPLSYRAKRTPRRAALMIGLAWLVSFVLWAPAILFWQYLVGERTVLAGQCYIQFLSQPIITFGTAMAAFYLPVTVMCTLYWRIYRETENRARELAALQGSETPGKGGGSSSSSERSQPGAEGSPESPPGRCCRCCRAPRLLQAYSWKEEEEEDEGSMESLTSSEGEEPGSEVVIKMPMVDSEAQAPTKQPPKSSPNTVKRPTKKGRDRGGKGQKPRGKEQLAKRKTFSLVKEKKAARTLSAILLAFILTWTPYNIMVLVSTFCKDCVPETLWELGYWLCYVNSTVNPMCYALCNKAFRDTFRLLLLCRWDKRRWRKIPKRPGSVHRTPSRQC
Method: These activities were tested upon rats. […] For comparative purposes, the doses of atropine used for testing gastric acidity were 0.01 milligram per kilogram of the body weight of rat injected subcutaneously (0.01 mg/kg s.c), 0.05 milligram per kilogram of the body weight of rat injected subcutaneously (0.05 mg/kg s.c), 0.10 milligram per kilogram of the body weight of rat injected subcutaneously (0.10 mg/kg s.c.).
The in vivo experiments for gastric acidity testing were performed by pyloric ligation on rats. Albino rats of either sex weighing 190-250 grams were randomly divided into groups of 6, with a group of 6 rats serving as control. All the rats were starved for 48 hours prior to the experiment. After the first 24 hours, they were given access to 8% sucrose in 0.2% sodium chloride for 8 hours. Water was permitted adlibitum except during the 8 hours of sucrose treatment and 2 hours previous to pyloric ligation.
Basal gastric acidity was determined by pyloric ligation under ether anaesthesia followed by gastric lavage with normal saline. […] Three hours later the animals were killed and the stomach was tied at the oesophageal junction and removed. The contents were collected by cutting along the greater curvature and the free acidity was determined by titration against 0.01 normal NaOH using Topfers reagent as indicator.

M3 receptors [3] = target: T1, M3 receptors; test: Dose response curve of acetylcholine on guinea pig bladder detrusor strips; conditions: 98, 196 and 392×10^−6 moles per ml of bath
Source text: as §1
The longitudinal bladder detrusor strips were suspended under a resting tension (0.5 g) in aerated Tyrode physiological solution. Tension was measured with an isometric force transducer (FT 305), and responses were recorded on a Biodevices Physiograph. Antimuscarinic activity was determined from concentration response curves to acetylcholine in the absence or presence of increasing concentrations of the said compound. Contractile responses were expressed as a percentage of the maximum contraction elicited by acetylcholine in the absence of the said compound.

M2 receptors = target: T3, M2 receptors (Cavia porcellus, UniProt H0VRN8); test: Dose response curve of acetylcholine on isolated guinea pig atria; conditions: for Inhibitory effect on rate and force of contraction of guinea pig atria (M2 block): dosage range used
T3 construct: The atria beat spontaneously; from tissue; host or cells: isolated guinea pig atria
T3 sequence (H0VRN8 1-466): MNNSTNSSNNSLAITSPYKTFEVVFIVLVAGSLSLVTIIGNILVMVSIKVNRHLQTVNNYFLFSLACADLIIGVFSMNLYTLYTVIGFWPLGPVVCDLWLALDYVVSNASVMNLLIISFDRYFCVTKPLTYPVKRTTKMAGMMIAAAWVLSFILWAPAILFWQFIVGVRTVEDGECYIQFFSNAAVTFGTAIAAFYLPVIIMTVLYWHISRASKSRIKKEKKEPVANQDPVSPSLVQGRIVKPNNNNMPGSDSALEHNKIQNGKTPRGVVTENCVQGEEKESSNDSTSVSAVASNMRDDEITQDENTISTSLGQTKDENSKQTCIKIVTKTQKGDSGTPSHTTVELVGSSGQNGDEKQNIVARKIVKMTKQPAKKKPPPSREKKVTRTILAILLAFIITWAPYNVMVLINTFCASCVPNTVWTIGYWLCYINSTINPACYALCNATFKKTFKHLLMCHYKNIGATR
Method: The in vitro experiments were performed on atria, ileum and bladder tissues of guinea pig. Atria were removed, and one end was tied to an oxygen tube and the other end was fixed to a Force transducer (Model T-305), which is connected to a physiograph (Biodevices Physiograph). The atria beat spontaneously, and after equilibration (30 minutes), resting tension was adjusted to the peak of the length tension curve followed by a re-equilibration period (30 minutes). Cumulative concentration response curves to acetylcholine were obtained before and after addition of increasing concentrations of the compound (doses said in Example 5). Responses were expressed as a percentage of the maximal inhibition of atrial rate induced by acetylcholine in absence of the antagonist (compound).

Row | Compound | Oral toxicity [1] | Antagonism of acetylcholine contractions of ileum smooth muscle (M3 receptors [2]) | Mutagenic effect (Salmonella) | % inhibition of gastric acidity (M1 receptors; rat, 1 mg/kg s.c.) | % inhibition of gastric acidity (M1 receptors; rat, 3 mg/kg s.c., 3 mg/kg) | % inhibition of gastric acidity (M1 receptors; rat, 5 mg/kg s.c., 5 mg/kg) | Effect on basal gastric (free) acidity (M1 receptors; rat, 1, 3 & 5 mg/kg s.c.) | ED50 (M1 receptors; sc, rat, s.c., read-out: ED50 for inhibition of gastric acidity) | Antagonism of acetylcholine on bladder detrusor strips (M3 receptors [3]) | Inotropic or chronotropic effect on its own on guinea pig atrium (M2 receptors; 20, 40, 196 and 392×10^−6 moles per ml of bath) | Inhibitory effect on rate and force of contraction of guinea pig atria (M2 block) (M2 receptors)
1 | CCCCCCCCCCCCCCCC(=O)OC [methyl palmitate] | nontoxic | antagonised contractions of smooth muscle of the ileum | devoid of any mutagenic effect | 50.72% | 55% | 91.5% | decreased free acidity; also recorded: inhibited basal gastric acidity dose dependently | 2.74 mg/kg | antagonised the effect of acetylcholine in a dose-dependent and competitive manner | did not produce any positive inotropic or chronotropic effect | had no such effect in the dosage range used; also recorded: does not block M2 receptors
2 | CN1[C@@H]2CC[C@H]1C[C@@H](OC(=O)C(CO)c1ccccc1)C2 (stereo partly drawn) [Atropine, reference compound] | – | – | – | – | – | – | – | – | – | – | inhibitory effect on all the three receptors
